Assay [1] concerns SNI neuropathic pain model in mice. As to the kind of experiment: Spared nerve injury (SNI) neuropathic pain model. In kind it is in vivo, C57 mice. From the text: Peripheral nerve injury models were developed to investigate the mechanisms of neuropathic pain. One such model, the spared nerve injury (SNI) neuropathic pain model in mice, involved ligating and transecting the […] and tibial nerves within the […] nerve, while leaving the sural nerve untouched. […] To evaluate the neuroanalgesic potential of WN2-R in this model, both i.g. and i.m. routes were used to evaluate the neuroanalgesic effect of WN2-R in this model (n = 5). […] In contrast, PF-05089771 reached its peak at 1 h (PWTs = 1.08 g) but then rapidly lost its efficacy, resembling the saline control group after 1 h. Throughout the experiment, the PWTs of the WN2-R group remained consistently higher than that of the PF-05089771 group (Fig. 6F and G). […] Subsequently, the efficacy of both drugs gradually declined, converging with the saline group after 3 h. Throughout the entire dosing period, the PWTs of the WN2-R group were slightly higher than that of the PF-05089771 group (Fig. 6M and N). […] To elucidate the time course of pain hypersensitivity induced by SNI, the behavioral responses (mechanical testing with von Frey fibers) were measured before surgery (baseline value) in C57 mice (5 female). Then, the mice underwent SNI surgery, which involved ligation and axotomy of the common peroneal and tibial nerves, while sparing the sural nerve. Sham-operated mice served as controls, with their nerves remaining intact. To confirm the presence of pain hypersensitivity in the SNI group, behavioral testing was carried out 14 days after SNI in each animal. Post drugs/saline administration, PWTs were measured at 0, 0.5, 1, 1.5, 2, 2.5, and 3 h for the i.g. route, and at 0, 0.5, 1, 2, 3, and 4 h for the i.m. route.

For assay [2], the system named is native Ca2+ current (Cav channels) in DRG neurons. As to the kind of experiment: Voltage-clamp recording of native Ca2+ current in DRG neurons. In kind it is cell-based. Particulars: 10 μM; mouse DRG neurons. Here is the method: (§1) To investigate the mechanism of action of WN2-R and facilitate animal model experiments, we used voltage-clamp recording to test the effects of WN2-R on the native Na^+-, K^+-, and Ca^2+-mediated currents in DRG neurons. […] Furthermore, the effects of WN2-R on membrane excitability were examined in small (<30 μm) DRG neurons from mice using current-clamp recordings.
(§2) DRG isolation and culture were performed according to our previous report. Briefly, C57BL/6 mice (weight 18 to 20 g, 6 to 8 weeks) were euthanized via cervical dislocation under anesthesia. Lumbar DRGs were isolated from the L4 to L5 segments of the lumbar spinal cord. The DRG neurons were subsequently dissociated through enzymatic digestion with collagenase (0.32 mg/ml) and trypsin (0.15 mg/ml) at 37 °C for 30 min, with intermittent shaking. After centrifugation at 800 rpm for 5 min at room temperature, the cells were seeded onto poly-L-lysine-coated coverslips and cultured in DMEM (Gibco) supplemented with 10% fetal bovine serum (Gibco). […]
(§3) For recording Nav currents of DRG neurons, the bath solution contains (in mM) 30 NaCl, 1 MgCl2, 1.8 CaCl2, 5 CsCl, 5 KCl, 25 D-glucose, 5 HEPES, 0.1 CdCl2, and TEA-Cl (pH 7.4 with NaOH), and the pipette solution contains (in mM) 135 CsCl, 10 NaCl, and 5 HEPES (pH 7.4 with CsOH). The Nav current program is recorded following the above method. […]

The test system of assay [3] is native Na+ current (Nav channels) in DRG neurons. Description: Voltage-clamp recording of native Na+ current in DRG neurons. Format: cell-based. As to conditions: 10 μM; mouse DRG neurons. The procedure:
as §1, §2, §3

The subject of assay [4] is small (<30 μm) DRG neurons. As to the kind of experiment: Current-clamp recording of action potential firing (membrane excitability). Particulars: 10 μM. Format: cell-based, mouse. Here is the method:
as §1, §2, §3

For the compound `Cc1ccc(Cn2cc([C@H](CC(=O)NCCN(C)C)c3ccc(F)cc3)c3ccccc32)cc1` [WN2-R], in assay [1] (i.g.), the “Duration of significant efficacy” value was “at least 2 h”. Moreover, in assay [1] (i.g., 1 h post drug application, 14 days after SNI), the “Paw withdrawal threshold (PWTs)” value is listed as 1.72 g. Besides, in assay [1] (i.m.), the “Time after which efficacy converged with the saline group” value amounted to 3 h and the “Time of peak efficacy” value is reported as 1 h. Further, in assay [1] (i.m., 1 h post drug application, 14 days after SNI), the “Paw withdrawal threshold (PWTs) at peak efficacy” value is recorded as 1.39 g. Besides, in assay [2], the “Effect on native Ca2+ current” value is “almost no effect”. Besides, the “Effect on native Na+ current” value in assay [3] is listed as “completely inhibited”. Moreover, in assay [4], the “Action potential (AP) firing in response to depolarizing currents” value is on record as “markedly reduced”.
